In patent US9732320B2, “Selective differentiation, identification, and modulation of human TH17 cells” (THE BRIGHAM AND WOMEN'S HOSPITAL, INC., priority 2008, dated 2017):

Legend:
TH17 cells = experiment: Chemotaxis chamber assay, TH17 cells; format: cell-based
Method: (§1) TH17 or TH1 cells alone or together with different concentrations of LTB4 inhibitor, U75-302, were added to the upper wells of chemotaxis chambers with 10^−8M of LTB4 in the lower wells. Cells were kept at 37° C. in 10% CO2 for 2 hr. Cells from the lower chamber were then stained with anti-CD4 antibody and stimulated for 4 hr with PMA/ionomycin in the presence of Golgi Stop. Cells were permeabilized and stained intracellularly for IL-17 or IFN-γ. The chemotactic index was calculated by dividing the number of CD4^+ IL-17^+ (for TH17 cells) or CD4^+ IFN-γ+ (for TH1 cells) migrated cells in LTB4-containing wells by the number of CD4^+ IL-17^+ (for TH17 cells) or CD4^+ IFN-γ+ (for Th1 cells) cells that migrated spontaneously to media alone.

BLT1 = BLT1 (Homo sapiens, UniProt Q15722); conditions: Richards et al. 1989; cited from earlier work
Chain of BLT1 (Q15722 whole entry, species assumed): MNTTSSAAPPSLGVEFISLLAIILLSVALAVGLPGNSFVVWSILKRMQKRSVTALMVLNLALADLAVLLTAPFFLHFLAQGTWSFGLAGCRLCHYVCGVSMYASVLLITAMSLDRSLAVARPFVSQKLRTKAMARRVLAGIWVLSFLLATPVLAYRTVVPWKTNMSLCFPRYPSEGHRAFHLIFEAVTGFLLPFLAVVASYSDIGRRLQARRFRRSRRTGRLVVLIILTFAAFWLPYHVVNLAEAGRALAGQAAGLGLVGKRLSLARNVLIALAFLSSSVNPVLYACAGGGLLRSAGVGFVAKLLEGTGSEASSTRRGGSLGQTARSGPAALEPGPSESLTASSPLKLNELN

[1] = tested on: human central memory CD4+ T cells; experiment: Differentiation assay: central memory CD4+ T cells (TCM) stimulated with anti-CD3/anti-CD28 plus cytokines for seven days; ELISA; format: cell-based
Excerpt: (§2) Error bars represent the standard deviation among three independent experiments using T cells from three unrelated subjects.
(§3) PBMCs were obtained from the peripheral blood of healthy subjects or from cord blood (AllCells) in compliance with institutional IRB protocols. CD4+ T cells were subsequently isolated by negative selection using magnetic beads (Miltenyi Biotech Inc., Auburn, Calif.). Naïve (CD25^− CD62L^+ CD45RA^hi) and central memory (CD25^− CD62L^+ CD45RA^−) CD4^+ T cells were obtained by staining with the following antibodies: CD62L-FITC, CD4-PerCP, CD45RA-PE-Cy7, CD25-APC-Cy7 (BD Pharmingen, San Diego, Calif.) and were sorted on a FACS Aria (BD Biosciences, Palo Alto, Calif.).
(§4) Naïve or central memory CD4^+ T cells were stimulated with plate-bound anti-CD3 and soluble CD28 monoclonal antibodies (1 μg/ml, each) in serum-free X-VIVO15 medium (Biowhittaker Inc., Walkersville, Md.) and cytokines (IL-6, 25 ng/ml; TGF-β, 5 ng/ml; IL-1β, 12.5 ng/ml; IL-21, 25 ng/ml; IL-23, 25 ng/ml) for a period of seven days, at which point supernatants were collected and tested by ELISA for IFN-β (BD Biosciences) or IL-17A (eBioscience, San Diego, Calif.) using paired antibodies. Intracytoplasmic staining was performed using standard methodologies and anti-IL-17-APC (R&D Systems, Minneapolis, Minn.) and anti-IFN-β-PE (BD Biosciences) antibodies.

human naïve CD4+ T cells = experiment: Differentiation assay: naïve CD4+ T cells stimulated with anti-CD3/anti-CD28 plus cytokines for seven days; ELISA and intracytoplasmic staining; format: cell-based; conditions: for IFN-β secretion from naïve T cells / IL-17A secretion from naïve CD4+ T cells: ELISA; for IL-17A secretion from naïve CD4+ T cells: serum-free medium
Excerpt: as §2, §3, §4

naïve human CD4+ T cells = experiment: Quantitative RT-PCR of stimulated naïve CD4+ T cells from peripheral blood; format: cell-based; conditions: for IL-23 receptor up-regulation: stimulated naïve CD4+ T cells; for IL-22 mRNA: absence of exogenous IL-23
Method: The mean fold-induction (relative to T cells stimulated in the absence of exogenous cytokines) and standard error among three independent experiments using T cells from three unrelated subjects are represented.
as §4
All primers and probes were obtained from Applied Biosystems (Foster City, Calif.), and used according to standard methodologies.

naïve cord blood T cells = experiment: Quantitative RT-PCR of stimulated naïve CD4+ T cells from cord blood; format: cell-based, human; conditions: seven days
Method: Sorted T cells were stimulated for seven days in the presence of the indicated cytokines, at which point RNA was collected and levels of IL-17A and RORC2 were measured by quantitative RT-PCR. Mean expression and standard error are reported based on three independent experiments using cord blood from three distinct donors.
as §3
as §4, with “Intracytoplasmic staining was performed using standard methodologies and anti-IL-17-APC (R&D Systems, Minneapolis, Minn.) and anti-IFN-β-PE (BD Biosciences) antibodies.” left out

TH1 cells = experiment: Chemotaxis chamber assay, TH1 cells; format: cell-based; conditions: 10^−8M of LTB4 in the lower wells, 2 hr
Method: as §1

CCCCC/C=C\C[C@@H](O)/C=C/c1cccc(C[C@@H](O)CCCCO)n1 [U-75302, 6-(6-(3R-hydroxy-1E,5Z-undecadien-1-yl)-2-pyridinyl)-1,5S-hexandiol]
Block of LTB4-induced migration of Th17 cells (TH17 cells; different doses of antagonist in the upper wells): blocked in a dose dependant manner | Binding to BLT1 (BLT1): specifically binds BLT1

IL-1β: cytokine, 12.5 ng/ml
IL-17A secretion from TCM [1]: induced the greatest amount of IL-17A secretion | IFN-β secretion from naïve T cells (human naïve CD4+ T cells): induced significant amounts of IFN-β secretion | IL-17A secretion from naïve CD4+ T cells (human naïve CD4+ T cells): failed, however, to induce IL-17A secretion | IL-21 mRNA (naïve human CD4+ T cells; naïve CD4+ T cells): induced even greater amounts of IL-21 mRNA | IL-23 receptor up-regulation (naïve human CD4+ T cells): induced IL-23 receptor up-regulation

IL-21: cytokine, 25 ng/ml
TH17 differentiation from naïve CD4+ T cells (human naïve CD4+ T cells): does not induce human TH17 differentiation | IFN-β secretion from naïve T cells (human naïve CD4+ T cells): induced significant amounts of IFN-β secretion | IL-17A secretion from naïve CD4+ T cells (human naïve CD4+ T cells): unable to synergize with endogenous levels of TGF-β to promote IL-17 secretion | RORC2 mRNA (naïve cord blood T cells): modestly induced RORC2 | IL-21 mRNA (naïve human CD4+ T cells; naïve CD4+ T cells): significantly up-regulated IL-21 | IL-22 mRNA (naïve human CD4+ T cells; naïve CD4+ T cells): induced IL-22 mRNA levels | IL-23 receptor up-regulation (naïve human CD4+ T cells): induced IL-23 receptor up-regulation

TGF-β: cytokine, 5 ng/ml; doses from 1 ng/ml to 100 ng/ml examined
TH17 differentiation from naïve CD4+ T cells (human naïve CD4+ T cells): all differentiation/proliferation was suppressed | IL-21 mRNA (naïve human CD4+ T cells; naïve CD4+ T cells): suppressed the expression of IL-21 and IL-22 mRNA induced by IL-21 | IL-22 mRNA (naïve human CD4+ T cells; naïve CD4+ T cells): suppressed the expression of IL-21 and IL-22 mRNA induced by IL-21 | FoxP3 expression (naïve human CD4+ T cells; naïve CD4+ T cells, seven days): induced | T-bet mRNA expression (naïve human CD4+ T cells; naïve CD4+ T cells, seven days): suppresses the induction of T-bet by IL-21 | IL-23 receptor up-regulation (naïve human CD4+ T cells): not

CCCCC/C=C\C[C@@H](O)/C=C/C=C/C=C\[C@@H](O)CCCC(=O)O [LTB4, Leukotriene B4]
Migration (chemotaxis) of TH1 cells (TH1 cells): not | Migration (chemotaxis) of TH17 cells (TH17 cells; 10^−8M of LTB4 in the lower wells, 2 hr): induced the selective migration

IL-6: cytokine, 25 ng/ml
IL-17A secretion from TCM [1]: little effect | IFN-β secretion from naïve T cells (human naïve CD4+ T cells): induced significant amounts of IFN-β secretion | Inhibition of the FoxP3 induction by TGF-β (naïve human CD4+ T cells; cytokine added with TGF-β): inhibited | IL-23 receptor up-regulation (naïve human CD4+ T cells): induced IL-23 receptor up-regulation

B1: IL-23: cytokine, 25 ng/ml (protein, UniProt Q9NPF7 20-189; P29460 23-328, looked up)
Interleukin-23 subunit alpha: RAVPGGSSPAWTQCQQLSQKLCTLAWSAHPLVGHMDLREEGDEETTNDVPHIQCGDGCDPQGLRDNSQFCLQRIHQGLIFYEKLLGSDIFTGEPSLLPDSPVGQLHASLLGLSQLLQPEGHHWETQQIPSLSPSQPWQRLLLRFKILRSLQAFVAVAARVFAHGAATLSP
Interleukin-12 subunit beta: IWELKKDVYVVELDWYPDAPGEMVVLTCDTPEEDGITWTLDQSSEVLGSGKTLTIQVKEFGDAGQYTCHKGGEVLSHSLLLLHKKEDGIWSTDILKDQKEPKNKTFLRCEAKNYSGRFTCWWLTTISTDLTFSVKSSRGSSDPQGVTCGAATLSAERVRGDNKEYEYSVECQEDSACPAAEESLPIEVMVDAVHKLKYENYTSSFFIRDIIKPDPPKNLQLKPLKNSRQVEVSWEYPDTWSTPHSYFSLTFCVQVQGKSKREKKDRVFTDKTSATVICRKNASISVRAQDRYYSSSWSEWASVPCS
IL-17A secretion from TCM [1]: modestly enhance IL-17A secretion
